Measurements taken from US20150175655A1 (priority 2012, published 2015).

Columns and labels:
[1] = system: genotype 1b stable HCV replicon in Huh-7-derived cells; experiment: Stable subgenomic HCV replicon EC50, genotype 1b (Renilla luciferase); assay type: cell-based; settings: Hepatitis C virus, stable replicon genotype 1b, 72 h, read-out: EC50 1B RLUC
Method: (§1) Antiviral potency (EC50) was determined in both stable subgenomic HCV replicon cell lines and transient-transfected HCV replicon cells. The term half maximal effective concentration (EC50) refers to the concentration of a drug which induces a response halfway between the baseline and maximum after the exposure time specified below.
(§2) Stable subgenomic HCV replicons for genotype 1a, 1 b, 2a, 3a, and 4a were established in Huh-7-derived cells as described by Lohmann et al (Lohmann V, Korner F, Koch J, et al Replication of subgenomic hepatitis C virus RNAs in a hepatoma cell line. Science 1999; 285:119-3). Each stable cell line contains a bicistronic HCV replicon that encodes a humanized Renilla luciferase (hRLuc) reporter gene fused to a selectable neomycin-resistance gene, followed by an EMCV IRES and the NS3-NS5B coding region of HCV. […] Luciferase activity was measured as a marker for intracellular HCV replication levels.
(§3) The genotype 1a stable replicon was derived from the H77 HCV strain and contained adaptive mutations P1496L and S2204I. The genotype 1 b stable replicon was derived from the Cont HCV strain and contained adaptive mutations E1202G, T1280I, and K1846T. […] The genotype 3a stable replicon was derived from the S52 HCV strain and contained adaptive mutations P1121 L, A1198T and S2210I (equivalent to S2204I in genotype 1). The genotype 4a stable replicon was derived from the ED43 HCV strain and contained adaptive mutations Q1691R and S2204I. All replicon cell lines were propagated in Huh-7-derived cells and maintained in Dulbecco's modified Eagle's Medium (DMEM) supplemented with 10% fetal bovine serum (FBS) and 0.5 mg/mL G418.
(§4) To perform EC50 assays, cells from each HCV replicon were dispensed into 384-well plates. Compounds were dissolved in DMSO at a concentration of 10 mM and diluted in DMSO using an automated pipetting instrument. Three-fold serially diluted compounds were directly added to the cells using an automated instrument. […] Seventy-two hours later, cells were lysed and Renilla luciferase activity were quantified as recommended by the manufacturer (Promega-Madison, Wis.). Non-linear regression was performed to calculate EC50 values.

[2] = system: genotype 1a stable HCV replicon (H77 strain) in Huh-7-derived cells; experiment: Stable subgenomic HCV replicon EC50, genotype 1a (Renilla luciferase); assay type: cell-based; settings: Hepatitis C virus, stable replicon genotype 1a, 72 h, read-out: EC50 1A RLUC
Method: as §1, §2, §3, §4

[3] = system: genotype 3a transient HCV replicon (S52 strain) in Huh-7-derived cells; experiment: Transient-transfected HCV replicon EC50, genotype 3a wild type; assay type: cell-based; settings: Hepatitis C virus; transient-transfected replicon genotype 3a wild type, 72 h; read-out: EC50 3A WT
[4] = system: genotype 1b (Con1) wild-type transient HCV replicon in Huh-7-derived cells; experiment: Transient-transfected HCV replicon EC50, genotype 1b wild type; assay type: cell-based; settings: Hepatitis C virus; transient-transfected replicon genotype 1b wild type, 72 h; read-out: EC50 1B WT
[5] = system: genotype 2a stable HCV replicon (JFH-1 strain) in Huh-7-derived cells; experiment: Stable subgenomic HCV replicon EC50, genotype 2a (Renilla luciferase); assay type: cell-based; settings: Hepatitis C virus, stable replicon genotype 2a, 72 h, read-out: EC50 2A RLUC
Method: as §1, §2, §3, §4

[6] = system: genotype 1a (H77) wild-type transient HCV replicon in Huh-7-derived cells; experiment: Transient-transfected HCV replicon EC50, genotype 1a wild type; assay type: cell-based; settings: Hepatitis C virus; transient-transfected replicon genotype 1a wild type, 72 h; read-out: EC50 1A WT
[7] = system: genotype 1a transient HCV replicon, NS3/4a protease inhibitor resistant variant R155K, in Huh-7-derived cells; experiment: Transient-transfected HCV replicon EC50, genotype 1a R155K; assay type: cell-based; settings: Hepatitis C virus, 72 h, read-out: EC50 1A R155K
[8] = system: genotype 1b transient HCV replicon, NS3/4a protease inhibitor resistant variant D168A, in Huh-7-derived cells; experiment: Transient-transfected HCV replicon EC50, genotype 1b D168A; assay type: cell-based; settings: Hepatitis C virus, 72 h, read-out: EC50 1B D168A
[9] = system: genotype 4a stable HCV replicon (ED43 strain) in Huh-7-derived cells; experiment: Stable subgenomic HCV replicon EC50, genotype 4a (Renilla luciferase); assay type: cell-based; settings: Hepatitis C virus, 72 h, read-out: EC50 4A RLUC
Method: as §1, §2, §3, §4

[10] = biological target: T1, NS3 genotype 1b protease (Hepatitis C virus genotype 1b, UniProt Q9WMX2, E1202G); experiment: Ki determination, NS3 protease genotype 1b (fluorogenic depsipeptide substrate); assay type: biochemical
T1 construct: Purified NS3 protease domain (amino acids 1-181) of the genotype 1b and 3a virus were generated as above; K3 hexahistidine tag (N); rTEV protease cleavage site (N); made in house; host or cells: E. coli BL21AI, pET28 vector p28-N6H-Tev-NS3(181)1b
From the text: The coding sequence of the genotype 1b (con-1 strain) HCV NS3 protease domain was PCR amplified from a plasmid encoding the I389luc-ubi-neo/NS3-3′/ET replicon (Reblikon, Mainz, Germany). The 5′-PCR primer was designed to encode an N-terminal K3 hexahistidine tag and to insert an in-frame recombinant Tobacco Etch virus (rTEV) protease cleavage site into the NS3 coding sequence. The resulting DNA fragment was cloned into the pET28 protein expression vector (Invitrogen, Carlsbad, Calif.) yielding the p28-N6H-Tev-NS3(181)1b.
BL21AI bacteria (Invitrogen, Carlsbad, Calif.) were transformed with genotype 1b or 3 NS3 expression vectors and used to inoculate a 20 L fermentation vessel (Sartorius BBI System Inc., Bethlehem, Pa.), containing 18 L of fresh 2YT medium supplemented with 50 μg/mL kanamycin. When cell densities reached an OD600 of 1, the temperature of the cultures was reduced from 37° C. to 28° C. and induction was immediately initiated by the addition of 30 μM ZnSO4, 14 mM L-arabinose and 1 mM Isopropyl β-D-thiogalactoside (IPTG) final concentrations. Cells were harvested by centrifugation four hours post-induction and were stored as frozen pellets at −80° C. prior to NS3 protein purification.
Cell pellets were thawed and resuspended at 10 mL/g cells in lysis buffer containing 50 mM tris pH 7.6, 300 mM NaCl, 0.1% 3-[(3-cholamidopropyl)dimethylammonio]-1-propanesulfonate (CHAPS), 5% glycerol, and 2 mM β-mercaptoethanol. Cell suspensions were then sonicated, filtered through cheesecloth, and passed three times through a microfluidizer at 18,000 pounds/in^2. The resulting lysates were centrifuged at 15500 rpm for 45 minutes and supernatants were loaded onto a HisTrap HP column (GE Lifesciences) pre-equilibrated with five volumes of Ni buffer A (50 mM tris pH 7.6, 300 mM NaCl, 0.1% CHAPS, 5% glycerol, 2 mM β-mercaptoethanol, 50 mM imidazole-HCl). Proteins were eluted with a 0-100% gradient of Ni buffer A plus 500 mM imidazole-HCl and fractions were collected and pooled. The HisTrap pool was diluted 1:10 with SP-A buffer (50 mM tris pH 7.0, 10% glycerol, 2 mM dithiothreitol (DTT)) and loaded onto a HiTrap SP-HP column (GE Lifesciences) equilibrated with SP-A buffer. NS3 protease was eluted with a 0-100% SP-B buffer (SP-A buffer plus 1 M NaCl) gradient. Concentrated pools of NS3-containing SP fractions were aliquoted, snap frozen in liquid nitrogen and stored at −80° C.
Purified NS3 protease domain (amino acids 1-181) of the genotype 1b and 3a virus were generated as above.
Reactions were run at room temperature in buffer consisting of 50 mM HEPES, 40% glycerol, 0.05% Triton X-100, 10 mM DTT, and 10% DMSO. The final assay solutions contained 50 pM NS3 genotype 1b protease or 200 pM genotype 3a protease, 20 μM NS4A peptide, and 4 μM substrate (genotype 1 b) or 2 μM substrate (genotype 3a). Inhibitor concentrations varied from 100 nM to 5 pM in 3-fold dilutions, and no-inhibitor controls were included.
Compound dilutions were made in DMSO at 20× final concentration. Reaction mixtures were prepared in 96-well assay plates. A solution of enzyme and NS4A peptide in assay buffer (25 μL volume with both reagents at 4× final concentration) was mixed with 45 μL assay buffer and 5 μL of either inhibitor or DMSO, and pre-incubated at room temperature for 1 hour. The reaction was started by addition of 25 μL substrate solution at 4× final concentration. Plates were mixed vigorously for 5-10 seconds and reactions were allowed to proceed for 90 minutes. fluorescence was measured every 30 s between 90 and 120 minutes reaction time using a Tecan InfiniTe M1000 or PerkinElmer Envision multimode plate reader with an excitation wavelength of 340 nm and an emission wavelength of 490 nm.
To determine the K, rates were plotted as a function of inhibitor concentration, and the data were fit with equation 1 (Morrison, J. F., Biochimica et Biophysica Acta 1969, 185, 269-286) to calculate Ki^app using GraphPad Prism 5.

[11] = system: genotype 3a stable HCV replicon (S52 strain) in Huh-7-derived cells; experiment: Stable subgenomic HCV replicon EC50, genotype 3a (Renilla luciferase); assay type: cell-based; settings: Hepatitis C virus, 72 h, read-out: EC50 3A RLUC
Method: as §1, §2, §3, §4

Row | SMILES | EC50 [1] | EC50 [2] | EC50 [3] | EC50 [4] | EC50 [5] | EC50 [6] | EC50 [7] | EC50 [8] | EC50 [9] | Ki [10] | EC50 [11]
1 | C=C[C@@H]1C[C@]1(NC(=O)[C@@H]1[C@H](CC)[C@@H]2CN1C(=O)[C@H](C(C)(C)C)NC(=O)O[C@@H]1C[C@H]1CCCCC(F)(F)c1nc3ccc(OC)cc3nc1O2)C(=O)NS(=O)(=O)C1CC1 [Example 92, (1aR,5S,8S,9S,10R,22aR)-5-tert-butyl-N-{(1R,2S)-1-[(cyclopropylsulfonyl)carbamoyl]-2-ethenylcyclopropyl}-9-ethyl-18,18-difluoro-14-methoxy-3,6-dioxo-1,1a,3,4,5,6,9,10,18,19,20,21,22,22a-tetradecahydro-8H-7,10-methanocyclopropa[18,19][1,10,3,6]dioxadiazacyclononadecino[11,12-b]quinoxaline-8-carboxamide] | 3.2 nM | 3.3 nM | 8 nM | 1.7 nM | 4.6 nM | 3 nM | 3 nM |  |  |  | 
2 | COc1ccc2nc3c(nc2c1)O[C@H]1CN(C(=O)[C@H](C(C)(C)C)NC(=O)O[C@@H]2C[C@H]2CCCCC3)[C@H](C(=O)N[C@]2(C(=O)NS(=O)(=O)C3(C)CC3)C[C@H]2C(F)F)[C@@H]1C1CC1 [Example 31, (1aR,5S,8S,9S,10R,22aR)-5-tert-butyl-9-cyclopropyl-N-[(1R,2R)-2-(difluoromethyl)-1-{[(1-methylcyclopropyl)sulfonyl]carbamoyl}cyclopropyl]-14-methoxy-3,6-dioxo-1,1a,3,4,5,6,9,10,18,19,20,21,22,22a-tetradecahydro-8H-7,10-methanocyclopropa[18,19][1,10,3,6]dioxadiazacyclononadecino[11,12-b]quinoxaline-8-carboxamide] | 18 nM | 40 nM |  | 6.6 nM | 63 nM | 27 nM | 154 nM | 805 nM | 20 nM | 0.13 nM | 2070 nM
3 | CC[C@@H]1[C@@H]2CN(C(=O)[C@H](C(C)(C)C)NC(=O)O[C@@H]3C[C@H]3CC/C=C/C(F)(F)c3nc4ccc(OC)cc4nc3O2)[C@@H]1C(=O)N[C@]1(C(=O)NS(=O)(=O)C2(C)CC2)C[C@H]1C(F)F [Example 89, (1aR,5S,8S,9S,10R,19E,22aR)-5-tert-butyl-N-[(1R,2R)-2-(difluoromethyl)-1-{[(1-methylcyclopropyl)sulfonyl]carbamoyl}cyclopropyl]-9-ethyl-18,18-difluoro-14-methoxy-3,6-dioxo-1,1a,3,4,5,6,9,10,18,21,22,22a-dodecahydro-8H-7,10-methanocyclopropa[18,19][1,10,3,6]dioxadiazacyclononadecino[11,12-b]quinoxaline-8-carboxamide] | 6.1 nM | 6 nM | 5.5 nM | 3.2 nM | 4.3 nM | 6 nM | 3.7 nM | 5.1 nM | 4.6 nM |  | 19 nM
